From PubChem BioAssay (NCI)
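The compound was tested at five concentrations on cells cultured in 96-well plates, with a 48-hour exposure period. TGI is the concentration that stops growth completely.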

Assays:
Test in all cases: growth of human tumour cells (NCI), 48 h
[1] = tested on: 786-0 renal
[2] = tested on: A498 renal
[3] = tested on: A549 NSCLC
[4] = tested on: ACHN renal
[5] = tested on: CAKI-1 renal
[6] = tested on: CCRF-CEM leukemia
[7] = tested on: COLO 205 colon
[8] = tested on: DU-145 prostate
[9] = tested on: EKVX NSCLC
[10] = tested on: HCC-2998 colon
[11] = tested on: HCT-116 colon
[12] = tested on: HCT-15 colon
[13] = tested on: HL-60(TB) leukemia
[14] = tested on: HOP-62 NSCLC
[15] = tested on: HOP-92 NSCLC
[16] = tested on: HS 578T breast
[17] = tested on: HT29 colon
[18] = tested on: IGROV1 ovarian
[19] = tested on: K-562 leukemia
[20] = tested on: KM12 colon
[21] = tested on: LOX IMVI melanoma
[22] = tested on: M14 melanoma
[23] = tested on: MALME-3M melanoma
[24] = tested on: MCF7 breast
[25] = tested on: MDA-MB-231 breast
[26] = tested on: MDA-MB-435
[27] = tested on: MDA-N
[28] = tested on: MOLT-4 leukemia
[29] = tested on: NCI-H226 lung
[30] = tested on: NCI-H23 lung
[31] = tested on: NCI-H522 lung
[32] = tested on: NCI/ADR-RES ovarian
[33] = tested on: OVCAR-3 ovarian
[34] = tested on: OVCAR-4 ovarian
[35] = tested on: OVCAR-5 ovarian
[36] = tested on: OVCAR-8 ovarian
[37] = tested on: PC-3 prostate
[38] = tested on: RPMI-8226 leukemia
[39] = tested on: RXF 393 renal
[40] = tested on: SF-268 CNS
[41] = tested on: SF-295 CNS
[42] = tested on: SF-539 CNS
[43] = tested on: SK-MEL-2 melanoma
[44] = tested on: SK-MEL-28 melanoma
[45] = tested on: SK-MEL-5 melanoma
[46] = tested on: SK-OV-3 ovarian
[47] = tested on: SN12C renal
[48] = tested on: SNB-19 CNS
[49] = tested on: SNB-75 CNS
[50] = tested on: SW-620 colon
[51] = tested on: T-47D breast
[52] = tested on: TK-10 renal
[53] = tested on: U251 CNS
[54] = tested on: UACC-257 melanoma
[55] = tested on: UO-31 renal
[56] = tested on: NCI-H460 lung
[57] = tested on: SR leukemia
[58] = tested on: UACC-62 melanoma

Measured: TGI

CCC#CCCCCCCCCC(F)C(=O)O (stereo not drawn)
not listed: [56] | [57] | [58]
> 100 µM: all other assays above

CNc1cc(N)ccc1C(=O)N1CCC[C@H]1CO
not listed: [5] | [6] | [7] | [10] | [13] | [23] | [30] | [34] | [39] | [45]
> 100 µM: all other assays above
